What all share (format): physicochemical
The nature of series [1]: Transformation by pressing (crystal form before and after pressing). As to conditions: for Crystal Form after pressing: 100 mg pressed with approximately 1300 psi during 2 minutes.
A short description of series [2]: Polymorphic stability when maintained at room temperature.
Series [3] can be described thus: Transformation by heating and slurry in acetone-water mixture (20:80), form determined by XRD. How it is done:
A sample of zolmitriptan (6 g) was placed in a glass flask with solvent and heated to reflux until the zolmitriptan dissolved. The zolmitriptan was cooled to room temperature while stirring, and left at 4° C. overnight. The mixture was filtered and the solid obtained was divided in half. One half of the solid was labeled “wet” and the other half was dried in a vacuum oven at about 60° C.-70° C. overnight and labeled as “dried.”
One third of the wet portion of each sample was separated for XRD, and marked as “_w” . One third of the dried portion of each sample was separated for XRD, and marked as “_d” . For example, “1w” refers to the wet portion of sample 1 analyzed by XRD before slurry in acetone/water, and “1d” refers to the dried portion of sample 1 analyzed by XRD before slurry in acetone/water.
The remaining two-thirds of the wet sample was weighed, placed in a glass flask containing 10 v/w of acetone:water (20:80), stirred for about 30 minutes at room temperature, and left at about 4° C. overnight. The mixture was filtered and the solid obtained was divided in half. One half was labeled “_w-ac-w.” The other half was dried in a vacuum oven at about 60° C.-70° C. overnight, and labeled “_w-ac-d.” For example, “1w-ac-w” refers to the portion of the wet sample resulting from slurry in acetone/water, while “1w-ac-d” refers to the portion of the wet sample resulting from slurry in acetone/water that was dried.
Likewise, the remaining two-thirds of the dry sample was weighed, placed in a glass flask containing 10 v/w of acetone:water (20:80), stirred for about 30 minutes at room temperature, and left at about 4° C. overnight. The mixture was filtered and the solid obtained was divided in half. One half was labeled “_d-ac-w.” The other half was dried in a vacuum oven at about 60° C.-70° C. overnight, and labeled “_d-ac-d.” For example, “1d-ac-w” refers to the portion of the dry sample resulting from slurry in acetone/water, while “1d-ac-d” refers to the portion of the dry sample resulting from slurry in acetone/water that was then dried.

Series [4] can be described thus: Transformation by slurry in other solvents (n-hexane, toluene, water) and drying, form determined by XRD. An excerpt: Similarly to example 6 Zolmitriptan samples were slurried from other solvents or solvent systems after dissolution and precipitation from a specific solvent.
Where [5] appears, read: Water, dried 63 °C under reduced pressure.
Setting [6] is: immersed in 10 v/w Toluene, filtered, sucked ½ hour on Buchner.
Where [7] appears, read: immersed in 10 v/w Water, filtered, sucked ½ hour on Buchner.
Setting [8] is: immersed in 10 v/w n-Hexane, filtered, sucked ½ hour on Buchner.
Setting [9] is: Toluene, dried 63 °C under reduced pressure.
The mark [10] stands for this setting: n-Hexane, dried 63 °C under reduced pressure.

For the compound `CN(C)CCc1c[nH]c2ccc(C[C@H]3COC(=O)N3)cc12` [Form P], in series [1], the “Crystal Form after pressing” value is “Form P” and the “transformation to other crystal form on pressing” value (“transformation” for short) was “not transform to other crystal form”. Also, the “polymorphic stability (conversion to Form A)” value (shortened to “polymorphic stability”) in series [2] was “do not convert to Form A”.
For `CN(C)CCc1c[nH]c2ccc(C[C@H]3COC(=O)N3)cc12` [Sample 8], the “Resulting Crystal Form” value in series [3] (_w-ac-w: wet sample slurried in 10 v/w acetone:water (20:80), 30 min room temperature, 4 °C overnight, filtered, not dried, listed as 8w-ac-w) is recorded as “Form K + ˜30% A”; in series [3] (_w: wet portion after crystallization, before slurry in acetone/water, listed as 8w), “Form K”.
Consider `CN(C)CCc1c[nH]c2ccc(C[C@H]3COC(=O)N3)cc12` [Form D], for which, in series [1], the “Crystal Form after pressing” value is recorded as “Form D” and the “transformation” value is reported as “not transform to other crystal form”. For the same compound, the “polymorphic stability” value in series [2] is “do not convert to Form A”.
Take `CN(C)CCc1c[nH]c2ccc(C[C@H]3COC(=O)N3)cc12` [Form R]: the “XRD sample (form after treatment)” value in series [4] (setting [5]) was “Form A”; in series [4] (setting [6]), “Form K”; in series [4] (setting [7]), “Form A”; in series [4] (setting [8]) it was “Form D”; in series [4] (n-Hexane, dried 63 °C under reduced pressure, listed as R), “Essent.Am D”.
Take `CN(C)CCc1c[nH]c2ccc(C[C@H]3COC(=O)N3)cc12` [Form F]: in series [1], the “Crystal Form after pressing” value is on record as “Form F” and the “transformation” value is recorded as “not transform to other crystal form”.
`CN(C)CCc1c[nH]c2ccc(C[C@H]3COC(=O)N3)cc12` [Form I]: the “Crystal Form after pressing” value in series [1] is “Form I”. The “transformation” value in series [1] was “not transform to other crystal form”. In addition, the “polymorphic stability” value in series [2] is “do not convert to Form A”. Further, the “XRD sample (form after treatment)” value in series [4] (setting [9]) is on record as “Form A”; in series [4] (setting [5]), “Form A”; in series [4] (setting [6]), “Form K”; in series [4] (setting [7]), “Form A”; in series [4] (setting [8]), “Form D”; in series [4] (setting [10]), “Form A”.
`CN(C)CCc1c[nH]c2ccc(C[C@H]3COC(=O)N3)cc12` [Sample 4]: the “Resulting Crystal Form” value in series [3] (_w-ac-w: wet sample slurried in 10 v/w acetone:water (20:80), 30 min room temperature, 4 °C overnight, filtered, not dried, listed as 4w-ac-w) is “Form A”; in series [3] (_w: wet portion after crystallization, before slurry in acetone/water, listed as 4w), “Form A”.
Regarding `CN(C)CCc1c[nH]c2ccc(C[C@H]3COC(=O)N3)cc12` [Form O], in series [1], the “Crystal Form after pressing” value is given as “Form O” and the “transformation” value was “not transform to other crystal form”.
For `CN(C)CCc1c[nH]c2ccc(C[C@H]3COC(=O)N3)cc12` [Sample 2], the “Resulting Crystal Form” value in series [3] (_d-ac-w: dried sample slurried in 10 v/w acetone:water (20:80), 30 min room temperature, 4 °C overnight, filtered, not dried) is recorded as “Form A”; in series [3] (_d: portion dried in vacuum oven 60-70 °C overnight, before slurry in acetone/water), “Form A”; in series [3] (_w-ac-d: wet sample slurried in acetone:water (20:80), then dried in vacuum oven 60-70 °C overnight) it was “Form A”; in series [3] (_w-ac-w: wet sample slurried in 10 v/w acetone:water (20:80), 30 min room temperature, 4 °C overnight, filtered, not dried, listed as 2w-ac-w), “Form A”; in series [3] (_w: wet portion after crystallization, before slurry in acetone/water, listed as 2w), “Form Q”.
Consider `CN(C)CCc1c[nH]c2ccc(C[C@H]3COC(=O)N3)cc12` [Form T], for which, in series [1], the “Crystal Form after pressing” value is “Form T” and the “transformation” value was “not transform to other crystal form”.
Take `CN(C)CCc1c[nH]c2ccc(C[C@H]3COC(=O)N3)cc12` [Form S]: in series [1], the “Crystal Form after pressing” value is “Form S”. Moreover, in series [1], the “transformation” value is on record as “not transform to other crystal form”. In addition, in series [2], the “polymorphic stability” value is “do not convert to Form A”. Moreover, the “XRD sample (form after treatment)” value in series [4] (setting [9]) is “Form A + ˜10% K”; in series [4] (setting [5]) it was “Form A”; in series [4] (setting [6]), “Form K”; in series [4] (setting [7]), “Form A + ˜10% D”; in series [4] (setting [8]), “Form D”; in series [4] (setting [10]), “Form A + ˜20% D”.
Regarding `CN(C)CCc1c[nH]c2ccc(C[C@H]3COC(=O)N3)cc12` [Form E], the “XRD sample (form after treatment)” value in series [4] (Toluene, dried 63 °C under reduced pressure, listed as E) is on record as “Form K”; in series [4] (immersed in 10 v/w Water, filtered, sucked ½ hour on Buchner, listed as E), “Form A”; in series [4] (setting [8]) it was “Form D”; in series [4] (n-Hexane, dried 63 °C under reduced pressure, listed as E) it was “Form A + ˜30% D”.
On to `CN(C)CCc1c[nH]c2ccc(C[C@H]3COC(=O)N3)cc12` [Sample 6], for which the “Resulting Crystal Form” value in series [3] (_w-ac-w: wet sample slurried in 10 v/w acetone:water (20:80), 30 min room temperature, 4 °C overnight, filtered, not dried, listed as 6w-ac-w) is recorded as “Form A”; in series [3] (_w: wet portion after crystallization, before slurry in acetone/water, listed as 6w) it was “Form S”.
Turning to `CN(C)CCc1c[nH]c2ccc(C[C@H]3COC(=O)N3)cc12` [Form J], in series [1], the “Crystal Form after pressing” value was “Form J” and the “transformation” value is given as “not transform to other crystal form”. Besides, the “polymorphic stability” value in series [2] is “do not convert to Form A”.
As to `CN(C)CCc1c[nH]c2ccc(C[C@H]3COC(=O)N3)cc12` [Form M], in series [1], the “Crystal Form after pressing” value was “Form M” and the “transformation” value is listed as “not transform to other crystal form”.
As to `CN(C)CCc1c[nH]c2ccc(C[C@H]3COC(=O)N3)cc12` [Form K], the “Crystal Form after pressing” value in series [1] is reported as “Form K”. Further, the “transformation” value in series [1] was “not transform to other crystal form”. The “polymorphic stability” value in series [2] is “do not convert to Form A”. In addition, the “XRD sample (form after treatment)” value in series [4] (setting [9]) is given as “Form A”; in series [4] (setting [5]), “Form A”; in series [4] (setting [6]), “Form K”; in series [4] (setting [7]), “Form A + ˜10% K”; in series [4] (setting [8]), “Form D”; in series [4] (setting [10]), “Form A”.
In the case of `CN(C)CCc1c[nH]c2ccc(C[C@H]3COC(=O)N3)cc12` [Sample 7], the “Resulting Crystal Form” value in series [3] (_w-ac-w: wet sample slurried in 10 v/w acetone:water (20:80), 30 min room temperature, 4 °C overnight, filtered, not dried, listed as 7w-ac-w) is recorded as “Form K + ˜30% A”; in series [3] (_w: wet portion after crystallization, before slurry in acetone/water, listed as 7w), “Form K”.
Take `CN(C)CCc1c[nH]c2ccc(C[C@H]3COC(=O)N3)cc12` [Sample 5]: the “Resulting Crystal Form” value in series [3] (_w-ac-w: wet sample slurried in 10 v/w acetone:water (20:80), 30 min room temperature, 4 °C overnight, filtered, not dried, listed as 5w-ac-w) was “Form A”; in series [3] (_w: wet portion after crystallization, before slurry in acetone/water, listed as 5w), “Form D”.
With `CN(C)CCc1c[nH]c2ccc(C[C@H]3COC(=O)N3)cc12` [Sample 1], the “Resulting Crystal Form” value was “Form A” in series [3] (_d-ac-d: dried sample slurried in acetone:water (20:80), then dried in vacuum oven 60-70 °C overnight); “Form A” in series [3] (_w-ac-w: wet sample slurried in 10 v/w acetone:water (20:80), 30 min room temperature, 4 °C overnight, filtered, not dried, listed as 1w-ac-w); “Form A” in series [3] (_w: wet portion after crystallization, before slurry in acetone/water, listed as 1w).
Regarding `CN(C)CCc1c[nH]c2ccc(C[C@H]3COC(=O)N3)cc12` [Form H], in series [1], the “Crystal Form after pressing” value is listed as “Form H” and the “transformation” value is on record as “not transform to other crystal form”. Moreover, the “polymorphic stability” value in series [2] is listed as “do not convert to Form A”.
In the case of `CN(C)CCc1c[nH]c2ccc(C[C@H]3COC(=O)N3)cc12` [Sample 3], the “Resulting Crystal Form” value is “Form A” in series [3] (_w-ac-w: wet sample slurried in 10 v/w acetone:water (20:80), 30 min room temperature, 4 °C overnight, filtered, not dried, listed as 3w-ac-w) and “Form G” in series [3] (_w: wet portion after crystallization, before slurry in acetone/water, listed as 3w).

Source of the values: patent US20060211751A1, “Zolmitriptan crystal forms” (priority 2004, published 2006).
